Reference: patent US9375004B2 (Bayer Intellectual Property GmbH, priority 2010, dated 2016)
Read-outs that look alike come from different tables or passages of the source.

Legend:
Alternaria solani = assay: Alternaria test (tomato)/preventive; assay type: in vivo; conditions: 500 ppm, preventive, evaluated 7 days after inoculation
Sphaerotheca fuliginea = assay: Sphaerotheca test (cucumber)/preventive; assay type: in vivo; conditions: 500 ppm, preventive, evaluated 7 days after inoculation
Puccinia triticina = assay: Puccinia triticina-test (wheat)/preventive; assay type: in vivo; conditions: 500 ppm, preventive, evaluated 8 days after inoculation
Pyrenophora teres = assay: Pyrenophora teres-test (barley)/preventive; assay type: in vivo; conditions: 500 ppm, preventive, evaluated 8 days after inoculation
Septoria tritici = assay: Septoria tritici-test (wheat)/preventive; assay type: in vivo; conditions: 500 ppm, preventive, evaluated 21 days after inoculation
[1] = test system: Fusarium nivale (var. majus); assay: Fusarium nivale (var. majus)-test (wheat)/preventive; conditions: preventive, evaluated 5 days after inoculation
[2] = logP by HPLC on reversed-phase column (EEC Directive 79/831 Annex V.A8); conditions: HPLC on reversed-phase column (C 18), EEC Directive 79/831 Annex V.A8
Uromyces appendiculatus = conditions: 100 ppm, beans, preventive, evaluated 10 days after inoculation
Botrytis cinerea = assay: Botrytis test (beans)/preventive; conditions: 100 ppm, preventive, lesion size 2 days after inoculation
Venturia inaequalis = assay: Venturia test (apples)/preventive; conditions: 100 ppm, preventive, evaluated 10 days after inoculation

Compound | logP [2] | Efficacy (Alternaria solani) | Efficacy (Sphaerotheca fuliginea) | Efficacy (Puccinia triticina) | Efficacy (Pyrenophora teres) | Efficacy (Septoria tritici) | Efficacy ([1]; 500 ppm) | Efficacy (Uromyces appendiculatus) | Efficacy (Botrytis cinerea) | Efficacy (Venturia inaequalis) | Efficacy ([1]; 250 ppm) | Efficacy (Uromyces appendiculatus; listed as 104 from this invention)
CCCC(C)c1ccccc1NC(=O)c1c(C(F)F)nn(C)c1F (stereo not shown) [Example 8] | 3.55 | 95% |  | 100% | 100% |  |  | 100% | 98% | 100% |  | 
Cn1nc(C(F)F)c(C(=O)Nc2ccc(F)cc2OCC(C)(C)C)c1F [Example 28] | 4.08 | 70% |  | 100% | 71% | 90% |  | 94% |  | 100% |  | 
CC1CCCC(c2ccccc2NC(=O)c2c(C(F)F)nn(C)c2Cl)C1 (stereo not shown) [Example 53] | 4.29 | 100% | 100% |  |  |  |  | 100% | 94% | 100% |  | 
Cn1nc(C(F)F)c(C(=O)Nc2cccc3c2C2CCC3C2=C(Cl)Cl)c1Cl (stereo not shown) [Example 71] | 4.21 | 80% | 100% | 100% | 100% |  | 94% | 100% | 94% | 100% | 94% | 
Cn1nc(C(F)F)c(C(=O)Nc2ccccc2-c2ccc(Cl)cc2)c1F [Example 85] | 3.57 | 95% | 98% | 100% | 100% |  | 100% | 100% | 100% | 100% |  | 
Cn1nc(C(F)F)c(C(=O)Nc2ccccc2-c2ccc(F)c(F)c2)c1Cl [Example 89] | 3.40 | 94% | 100% | 100% | 100% |  | 100% | 100% | 100% | 100% |  | 
Cn1nc(C(F)F)c(C(=O)Nc2ccccc2-c2cc(F)c(F)c(F)c2)c1F [Example 104] | 3.30 |  |  | 100% | 100% |  |  |  | 100% | 100% |  | 100%
COC(C)(C)CCc1ccccc1NC(=O)c1c(C(F)F)nn(C)c1F [Example 23] | 2.74 | 70% |  | 100% | 71% | 100% |  | 90% |  | 100% |  | 
Cn1nc(C(F)F)c(C(=O)Nc2ccccc2-c2ccc(Cl)cc2)c1Cl [Example 88] | 3.85 | 94% | 100% | 100% | 100% |  | 100% | 100% | 92% | 100% |  | 
CCCC(C)c1ccccc1NC(=O)c1c(C(F)F)nn(C)c1Cl (stereo not shown) [Example 9] | 3.77 | 95% | 100% | 100% | 100% |  | 100% | 100% |  | 100% |  | 
Cn1nc(C(F)F)c(C(=O)Nc2cccc3c2C2CCC3C2=C(Cl)Cl)c1F (stereo not shown) [Example 72] | 3.99 | 70% | 100% | 94% | 100% |  | 100% | 100% | 100% | 100% | 100% | 
Cn1nc(C(F)F)c(C(=S)Nc2ccccc2-c2cc(F)c(F)c(F)c2)c1F [Example 106] | 3.65 | 90% | 98% | 100% | 100% | 80% |  | 100% |  | 100% |  | 
Cn1nc(C(F)F)c(C(=O)Nc2ccccc2-c2ccc(F)c(F)c2)c1F [Example 90] | 3.20 | 90% | 95% | 100% | 100% | 86% |  |  |  |  |  | 

Now from value to compound, other results behind:

logP [2] | Compound | Efficacy (Alternaria solani) | Efficacy (Sphaerotheca fuliginea) | Efficacy (Puccinia triticina) | Efficacy (Pyrenophora teres) | Efficacy (Septoria tritici) | Efficacy ([1]; 500 ppm) | Efficacy (Uromyces appendiculatus) | Efficacy (Botrytis cinerea) | Efficacy (Venturia inaequalis) | Efficacy ([1]; 250 ppm) | Efficacy (Uromyces appendiculatus; listed as 104 from this invention)
4.06 | Cn1nc(C(F)F)c(C(=S)Nc2ccccc2-c2ccc(C(F)(F)F)c(F)c2)c1Cl [Example 151] | 95% | 98% | 100% | 100% | 93% | 100% |  |  |  |  | 
3.46 | Cn1nc(C(F)F)c(C(=O)Nc2ccccc2-c2cc(F)c(F)cc2F)c1Cl [Example 108] | 100% | 93% |  |  |  |  | 100% | 99% | 100% |  | 
3.85 | Cn1nc(C(F)F)c(C(=O)Nc2ccccc2-c2ccc(Br)cc2Cl)c1F [Example 155] | 95% |  |  |  |  |  | 100% | 100% | 100% |  | 
3.66 | Cn1nc(C(F)F)c(C(=O)Nc2ccc(F)cc2-c2ccc(C(F)(F)F)c(F)c2)c1F [Example 150] | 89% | 100% | 100% | 100% |  | 86% | 98% | 100% | 100% |  | 
3.83 | Cn1nc(C(F)F)c(C(=O)Nc2ccccc2-c2ccc(Br)c(Cl)c2)c1F [Example 152] | 94% | 95% | 100% | 100% |  | 100% | 100% | 100% | 100% |  | 
4.81 | Cn1nc(C(F)F)c(C(=O)Nc2ccccc2OCc2ccc(Cl)cc2Cl)c1Cl [Example 163] |  |  | 71% | 92% | 71% |  |  |  |  |  | 
3.50 | Cn1nc(C(F)F)c(C(=O)Nc2c(F)cccc2-c2ccc(Cl)c(Cl)c2)c1F [Example 115] | 95% |  | 88% |  |  | 86% | 100% | 94% | 100% |  | 
3.88 | Cn1nc(C(F)F)c(C(=O)Nc2ccccc2-c2ccc(Br)cc2)c1Cl [Example 140] |  |  | 100% | 100% |  | 86% | 100% | 98% | 100% |  | 
4.16 | Cn1nc(C(F)F)c(C(=O)Nc2ccccc2-c2ccc(Br)cc2Cl)c1Cl [Example 154] | 95% | 100% |  |  |  |  | 100% | 78% | 100% |  | 
4.04 | Cn1nc(C(F)F)c(C(=O)Nc2cccc(-c3ccc(Cl)cc3)c2)c1Cl [Example 208] |  |  | 100% | 100% | 100% | 100% |  |  |  |  | 
3.85 | Cn1nc(C(F)F)c(C(=O)Nc2ccccc2-c2ccc(Cl)c(Cl)c2)c1F [Example 125] | 95% | 98% | 100% | 100% |  |  | 100% | 100% | 100% |  | 
